Results taken from patent publication US11696537B2, “Composition and method for increasing the content of glucosinolates in adult plants of the genus brassica” (CONSEJO SUPERIOR DE INVESTIGACIONES CIENTÍFICAS (CSIC), priority 2018, dated 2023).

Key:
[1] = system: Brassica oleracea var. Italica Parthenon; conditions: in vivo
Experimental: (§1) In a growth chamber, seeds of the broccoli cultivar (Brassica oleracea var. Italica) Parthenon which grew for 30 days were germinated. Subsequently, they were allowed to grow in a greenhouse for 75 days until the inflorescences reached commercial size. In this case, foliar application of the treatments indicated below was carried out by spraying between 100 and 150 ml per plant: one at the time the flower bud appears and the following applications 5 and 10 days, respectively, after the first application.

[2] = system: Brassica oleracea var. Italica Parthenon; assay: Greenhouse test: concentration of glucosinolates on leaves and inflorescences after foliar application; assay type: in vivo
Experimental: as §1
Control composition: consisting of a solution containing 0.2% by volume of ethanol and 99.8% by volume of water.
Surfactant composition 1 (Triton X-100): consisting of a solution containing 0.1% by volume of Triton X-100 surfactant and 99.9% by volume of water.
Surfactant composition 2 (MPP): consisting of a solution containing 0.1% by volume of the modified polysiloxane polyether surfactant and 99.9% by volume of water.
Elicitor composition (MeJA): consisting of a solution containing 0.0022% by volume of MeJA, 0.2% by volume of ethanol and 99.7978% by volume of water.
Composition 2 (MeJA+Triton X-100): consisting of a solution containing 0.0022% by volume of MeJA, 0.2% by volume of ethanol, 0.1% by volume of Triton X-100 and 99.70% by volume of water.
Composition 1 (MeJA+MPP): A solution was prepared containing 0.0022% by volume of MeJA (for a final concentration of 100 micromolar in the composition), 0.2% by volume of ethanol, 0.1% by volume of polysiloxane polyether and 99.7968% by volume of water.
Subsequently, the plants were harvested and the leaves and inflorescences were frozen in liquid nitrogen and immediately lyophilised to prevent the compounds of interest from degrading until it was time to determine the glucosinolates and metabolites of interest.
The analyses were carried out on the leaf and inflorescence at the time of collecting the commercial size. The method used for extracting glucosinolates was based on the method developed by the research group and currently in the public domain: Dominguez-Perles et al. (2010) Journal of Food Science 75, 383-392. The quantitative analysis was carried out by HPLC-DAD. The lyophilised and ground samples (100 mg) were extracted with 1 ml of 70% MeOH in a hot bath at 70° C. for 30 minutes, stirring every 5 minutes in a vortex, to optimise the extraction. The reaction was then stopped in an ice bath and the samples were centrifuged to precipitate the insoluble material, for 15 minutes, at 10,000 g and at 4° C. The supernatant was collected and the methanol was removed on a rotary evaporator with a thermostatically controlled bath at 38° C. The dry residue obtained was redissolved in ultra-pure water and filtered (00.22 μm of PVDF) for the subsequent analysis thereof.
Each sample (20 μl) was analysed in high-performance liquid chromatography (HPLC) equipped with a pump for binary eluent partitioning, an inline degasser, a photodiode detector autosampler (DAD). The compounds were separated in a C18 column measuring 250×4 mm and with a 0.4 um pore diameter, in reversed phase liquid chromatography (RP-HPLC) mode. The glucosinolates were identified using the methodology already described by the research group and publicly available for multipurpose analysis of intact glucosinolates (Martinez-Sánchez et al. 2006 Postharvest Biol. Technol. 42, 86-97; Dominguez-Perles et al. (2010) Journal of Food Sci. 75, 383-392), based on the retention times of the respective analytical peaks, the maximum absorption spectra thereof in the UV-Vis range and the comparison with commercially available external standards, sinigrin for aliphatic glucosinolates and glucobrassicin for indolic glucosinolates (Baenas et al. (2012) J. Agric. Food Chemistry, 60, 11409-11420). The detection was carried out at 227 nm and the concentration of glucosinolates was expressed in μmol/g of plant tissue dry weight. […]

Drop dispersion = assay type: physicochemical; conditions: under binoculars (1.6×), FIG. 3
Experimental: The drop dispersion of Compositions 1 and 2 and that of elicitor Composition (MeJA) was determined under binoculars (1.6×) (FIG. 3).

Row | Compound | % of Commercial heads [1] [%] | Total GLS ([2]; INFLORESCENCE) [mg/g DW] | mg GBS/g DW ([2]; INFLORESCENCE) [mg/g DW] | mg GRA/g DW ([2]; INFLORESCENCE) [mg/g DW] | mg NGB/g DW ([2]; INFLORESCENCE) [mg/g DW] | Total GLS ([2]; LEAF) [mg/g DW] | mg GBS/g DW ([2]; LEAF) [mg/g DW] | mg GRA/g DW ([2]; LEAF) [mg/g DW] | mg NGB/g DW ([2]; LEAF) [mg/g DW] | drop dispersion (Drop dispersion)
1 | CC/C=C\CC1C(=O)CCC1CC(=O)OC (centres unmarked) [MeJA, methyl jasmonate] | 100 | 4.97 | 2.05 | 1.70 | 1.22 | 1.75 | 0.71 | 0.35 | 0.69 | no dispersion is observed
2 | Triton X-100 | 81.1 | – | – | – | – | – | – | – | – | –
